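Values below derive from 48-hour exposures of cells grown in 96-well plates, with endpoints linearly interpolated between the two concentrations bracketing the appropriate inhibition level. TGI marks complete inhibition of growth.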
Legend:
Experiment in all cases: NCI-60 cell line screen, 48 h
SK-MEL-2 melanoma = test system: SK-MEL-2 melanoma
MDA-N = test system: MDA-N
SF-268 CNS = test system: SF-268 CNS
CAKI-1 renal = test system: CAKI-1 renal
DU-145 prostate = test system: DU-145 prostate
HL-60(TB) leukemia = test system: HL-60(TB) leukemia
TK-10 renal = test system: TK-10 renal
HCT-116 colon = test system: HCT-116 colon
IGROV1 ovarian = test system: IGROV1 ovarian
SK-OV-3 ovarian = test system: SK-OV-3 ovarian

Compound | TGI (SK-MEL-2 melanoma) | TGI (MDA-N) | TGI (SF-268 CNS) | TGI (CAKI-1 renal) | TGI (DU-145 prostate) | TGI (HL-60(TB) leukemia) | TGI (TK-10 renal) | TGI (HCT-116 colon) | TGI (IGROV1 ovarian) | TGI (SK-OV-3 ovarian)
Cc1ccc(F)cc1NC(=O)O/N=C(\Cl)C(C)C | 35.4 µM | 11.8 µM | 62.8 µM | 3.09 µM | 33.5 µM | > 21.2 µM | 15 µM | 35.3 µM | 33.6 µM | 36.9 µM
COc1ccc2nc3cc(Cl)ccc3c(NCCCCCC(=O)NC(COc3cnc4c(ccc5cccnc54)c3)COc3cnc4c(ccc5cccnc54)c3)c2c1 | 41.5 µM | > 100 µM | 40.2 µM | > 100 µM | 23.4 µM | 15.1 µM | 91.6 µM | 14.9 µM | > 100 µM | > 100 µM
COc1cc2c(cc1C[N+](C)(C)CSc1ccccc1)-c1ccccc1CC2 | 5.21 µM | 5.48 µM | 18.5 µM | 26.4 µM | 21.2 µM | 2.46 µM | 23.1 µM | 13.1 µM | 12.5 µM | 26.1 µM
O=C(Nc1sccc1S(=O)(=O)c1ccccc1)c1cccnc1 | > 100 µM | 3.63 µM | > 100 µM | > 100 µM | > 100 µM | 4.28 µM | > 100 µM | > 100 µM | > 94.2 µM | > 89.1 µM
Cn1c(=O)c2c(nc(NCCCCl)n2CC(=O)O)n(C)c1=O | > 100 µM | > 100 µM | > 100 µM | > 100 µM | > 100 µM | > 100 µM | > 100 µM | > 100 µM | > 100 µM | > 100 µM
COc1ccc2c(c1)OC(c1cccnc1)C(c1ccccc1)C2=O (stereo not given) | > 100 µM | > 100 µM | > 100 µM | > 100 µM | > 100 µM | > 100 µM | > 100 µM | > 100 µM | > 100 µM | > 100 µM
COc1cc(-c2nc3cc(F)ccc3s2)ccc1O | > 100 µM | > 100 µM | > 100 µM | > 100 µM | > 100 µM | > 100 µM | > 100 µM | > 100 µM | > 100 µM | > 100 µM
COc1ccc2c(c1)O[C@@H]1C(O)Oc3cc(OC)c(OC)cc3[C@]1(O)C2=O (stereo not given in full) | > 100 µM | > 100 µM | > 100 µM | > 100 µM | > 100 µM | > 100 µM | > 100 µM | > 100 µM | > 100 µM | > 100 µM
CC(C)(C)OC(=O)n1cc(C2CNC(=O)C23CCC(=O)N3Cc2ccccc2)c2ccccc21 (stereo not given) | 33.4 µM | 85.5 µM | > 100 µM | > 100 µM | 55.4 µM | 82.5 µM | 44.4 µM | > 100 µM | 33.6 µM | 58.3 µM
COc1cccc(N2C(=O)C3c4[nH]c5ccccc5c4C4c5ccccc5CCC4C3C2=O)c1 (stereo not given) | > 10 µM | > 10 µM | > 10 µM | > 10 µM | > 10 µM | > 10 µM | > 10 µM | > 10 µM | > 10 µM | > 7.28 µM
O=C(NCCN(CCNC(=O)c1cccc(=O)n1O)CCN(CCNC(=O)c1cccc(=O)n1O)CCNC(=O)c1cccc(=O)n1O)c1cccc(=O)n1O | > 100 µM | > 100 µM | > 100 µM | > 100 µM | > 100 µM | > 100 µM | > 100 µM | > 100 µM | > 100 µM | > 100 µM
Cn1ccnc1Sc1ccc(/C=N/NC(=O)c2ccccc2O)cc1[N+](=O)[O-] | > 100 µM | > 100 µM | > 100 µM | > 100 µM | > 100 µM | > 100 µM | > 100 µM | > 100 µM | > 100 µM | > 100 µM
CCN(CC)Cc1nc2sc3c(c2c(=O)n1-c1ccccc1)CCCC3 | 38.6 µM | 58 µM | 50.3 µM | 56.9 µM | 47.8 µM | > 100 µM | 30.9 µM | 39.4 µM | 39 µM | 83.3 µM
Cc1c(-c2c(C)c3ccccc3n2S(=O)(=O)c2ccccc2)n(S(=O)(=O)c2ccccc2)c2ccccc12 | > 100 µM | > 100 µM | > 100 µM | > 100 µM | > 33.5 µM | > 100 µM | > 100 µM | > 100 µM | > 100 µM | > 100 µM
COC(=O)c1cc(C)ccc1CC(Cc1cccc(C)c1)C(=O)OC (stereo not given) | > 100 µM | > 100 µM | 53.9 µM | > 100 µM | > 100 µM | > 100 µM | > 100 µM | > 100 µM | > 100 µM | 27.1 µM
CCCC/C=C1\CCC(CN2CCCCC2)C1=O (stereo not given) | > 54.4 µM | > 100 µM | 51.6 µM | 17.8 µM | > 100 µM | 14.4 µM | 28.1 µM | 36.7 µM | 36.7 µM | > 56.2 µM
